Assay type in all cases: in vivo
In test [1] the test system is soybean (Glycine max var. Winchester). Nature of the test: Preemergence herbicidal activity, soybean. The note with it: Rate of Application 0.3 Kg/Ha, examined after 12-17 days.
Test [2] has as its system wheat (Triticum aestivum var. Lew). Nature of the test: Preemergence herbicidal activity, wheat. The settings on record: Rate of Application 0.3 Kg/Ha, examined after 12-17 days.
Test [3] relates to field corn (Zea mays var. Pioneer 3732). Nature of the test: Preemergence herbicidal activity, corn. The note with it: Rate of Application 0.3 Kg/Ha, examined after 12-17 days.
In test [4] the test system is velvetleaf (Abutilon theophrasti). Kind of test: Preemergence herbicidal activity, velvetleaf. The note with it: Rate of Application 0.3 Kg/Ha, examined after 12-17 days.
The test system of test [5] is morningglory (Ipomea lacunosa or Ipomea hederacea). Kind of test: Preemergence herbicidal activity, morningglory. The note with it: Rate of Application 0.3 Kg/Ha, examined after 12-17 days.
Test [6] deals with common chickweed (Stellaria media). Nature of the test: Preemergence herbicidal activity, chickweed. The note with it: Rate of Application 0.3 Kg/Ha, examined after 12-17 days.
Test [7] concerns common cocklebur (Xanthium strumarium L.). Nature of the test: Preemergence herbicidal activity, cocklebur. The note with it: Rate of Application 0.3 Kg/Ha, examined after 12-17 days.
Test [8] concerns green foxtail (Setaria viridis). Kind of test: Preemergence herbicidal activity, green foxtail. The note with it: Rate of Application 0.3 Kg/Ha, examined after 12-17 days.
Test [9] relates to Johnsongrass (Sorghum halepense). Nature of the test: Preemergence herbicidal activity, johnsongrass. The note with it: Rate of Application 0.3 Kg/Ha, examined after 12-17 days.
For test [10], the system named is soybean (Glycine max var. Winchester). Kind of test: Postemergence herbicidal activity, soybean. The note with it: rate of application 0.3 Kg/Ha, rated after 12-17 days.
Test [11] deals with wheat (Triticum aestivum var. Lew). Kind of test: Postemergence herbicidal activity, wheat. The settings on record: rate of application 0.3 Kg/Ha, rated after 12-17 days.
The subject of test [12] is field corn (Zea mays var. Pioneer 3732). Nature of the test: Postemergence herbicidal activity, corn. The settings on record: rate of application 0.3 Kg/Ha, rated after 12-17 days.
Test [13] relates to velvetleaf (Abutilon theophrasti). Kind of test: Postemergence herbicidal activity, velvetleaf. The note with it: rate of application 0.3 Kg/Ha, rated after 12-17 days.
Test [14] relates to morningglory (Ipomea lacunosa or Ipomea hederacea). Kind of test: Postemergence herbicidal activity, morningglory. The settings on record: rate of application 0.3 Kg/Ha, rated after 12-17 days.
Test [15] has as its system common chickweed (Stellaria media). Kind of test: Postemergence herbicidal activity, chickweed. The note with it: rate of application 0.3 Kg/Ha, rated after 12-17 days.
The subject of test [16] is common cocklebur (Xanthium strumarium L.). Kind of test: Postemergence herbicidal activity, cocklebur. The note with it: rate of application 0.3 Kg/Ha, rated after 12-17 days.
Test [17] relates to blackgrass (Aloepecurus myosuroides). Kind of test: Postemergence herbicidal activity, blackgrass. The note with it: rate of application 0.3 Kg/Ha, rated after 12-17 days.
Test [18] concerns green foxtail (Setaria viridis). Kind of test: Postemergence herbicidal activity, green foxtail. The note with it: rate of application 0.3 Kg/Ha, rated after 12-17 days.
Test [19] concerns Johnsongrass (Sorghum halepense). Nature of the test: Postemergence herbicidal activity, johnsongrass. The settings on record: rate of application 0.3 Kg/Ha, rated after 12-17 days.
Test [20] has as its system blackgrass (Aloepecurus myosuroides). Kind of test: Preemergence herbicidal activity, blackgrass. The settings on record: Rate of Application 0.3 Kg/Ha, examined after 12-17 days.

Turning to `CON=Cc1cc2c(Cl)ccc(-n3c(=O)cc(C(F)(F)F)n(C)c3=O)c2o1` [Compound 259], in test [1], the “PREEMERGENCE HERBICIDAL ACTIVITY (% CONTROL) SOY” value worked out at 70%. Besides, the “PREEMERGENCE HERBICIDAL ACTIVITY (% CONTROL) WHT” value in [2] amounted to 40%. In addition, the “PREEMERGENCE HERBICIDAL ACTIVITY (% CONTROL) CRN” value in test [3] stood at 80%. Also, the “PREEMERGENCE HERBICIDAL ACTIVITY (% CONTROL) ABUTH” value in [4] is 100%. Also, the “PREEMERGENCE HERBICIDAL ACTIVITY (% CONTROL) IPOSS” value in [5] is 70%. Moreover, the “PREEMERGENCE HERBICIDAL ACTIVITY (% CONTROL) STEME” value in test [6] is listed as 100%. Also, in test [7], the “PREEMERGENCE HERBICIDAL ACTIVITY (% CONTROL) XANPE” value worked out at 55%. In addition, the “PREEMERGENCE HERBICIDAL ACTIVITY (% CONTROL) SETVI” value in test [8] came out at 100%. Besides, the “PREEMERGENCE HERBICIDAL ACTIVITY (% CONTROL) SORHA” value in [9] worked out at 95%. For the same molecule, the “Postemergence herbicidal activity (% control) SOY” value in test [10] stood at 80%. In [11], the “Postemergence herbicidal activity (% control) WHT” value was found to be 35%. The “Postemergence herbicidal activity (% control) CRN” value in [12] was determined as 75%. For the same molecule, the “Postemergence herbicidal activity (% control) ABUTH” value in [13] was found to be 100%. For the same molecule, the “Postemergence herbicidal activity (% control) IPOSS” value in test [14] turned out to be 90%. In addition, the “Postemergence herbicidal activity (% control) STEME” value in test [15] is reported as 30%. The “Postemergence herbicidal activity (% control) XANPE” value in test [16] is listed as 70%. In test [17], the “Postemergence herbicidal activity (% control) ALOMY” value turned out to be 55%. The “Postemergence herbicidal activity (% control) SETVI” value in test [18] worked out at 80%. The “Postemergence herbicidal activity (% control) SORHA” value in test [19] came out at 70%.

Consider `CNC(=O)c1cc2c(Cl)ccc(-n3c(=O)cc(C(F)(F)F)n(C)c3=O)c2o1` [Compound 270], for which, in [1], the “PREEMERGENCE HERBICIDAL ACTIVITY (% CONTROL) SOY” value was determined as 70%. Also, the “PREEMERGENCE HERBICIDAL ACTIVITY (% CONTROL) WHT” value in test [2] came to 70%. Further, the “PREEMERGENCE HERBICIDAL ACTIVITY (% CONTROL) CRN” value in test [3] is on record as 90%. Further, the “PREEMERGENCE HERBICIDAL ACTIVITY (% CONTROL) ABUTH” value in test [4] worked out at 100%. Also, the “PREEMERGENCE HERBICIDAL ACTIVITY (% CONTROL) IPOSS” value in [5] is 100%. Further, the “PREEMERGENCE HERBICIDAL ACTIVITY (% CONTROL) XANPE” value in test [7] is recorded as 60%. The “PREEMERGENCE HERBICIDAL ACTIVITY (% CONTROL) ALOMY” value in test [20] amounted to 65%. Moreover, in [8], the “PREEMERGENCE HERBICIDAL ACTIVITY (% CONTROL) SETVI” value is listed as 100%. In addition, the “PREEMERGENCE HERBICIDAL ACTIVITY (% CONTROL) SORHA” value in test [9] turned out to be 100%. Also, in [10], the “Postemergence herbicidal activity (% control) SOY” value is 70%. In [11], the “Postemergence herbicidal activity (% control) WHT” value turned out to be 40%. Further, in test [12], the “Postemergence herbicidal activity (% control) CRN” value is 50%. In test [13], the “Postemergence herbicidal activity (% control) ABUTH” value turned out to be 100%. Also, the “Postemergence herbicidal activity (% control) IPOSS” value in test [14] is 60%. For the same molecule, the “Postemergence herbicidal activity (% control) STEME” value in [15] stood at 40%. In addition, the “Postemergence herbicidal activity (% control) ALOMY” value in test [17] was 50%. The “Postemergence herbicidal activity (% control) SETVI” value in test [18] is on record as 50%. The “Postemergence herbicidal activity (% control) SORHA” value in test [19] is listed as 50%.

For the molecule `Cn1c(C(F)(F)F)cc(=O)n(-c2c(F)cc(Cl)c3nc(COc4ccccc4)[nH]c23)c1=O` [Compound 378], the “PREEMERGENCE HERBICIDAL ACTIVITY (% CONTROL) SOY” value in test [1] is 90%. Further, the “PREEMERGENCE HERBICIDAL ACTIVITY (% CONTROL) WHT” value in test [2] stood at 70%. In addition, the “PREEMERGENCE HERBICIDAL ACTIVITY (% CONTROL) CRN” value in test [3] turned out to be 90%. Besides, the “PREEMERGENCE HERBICIDAL ACTIVITY (% CONTROL) ABUTH” value in test [4] was determined as 100%. For the same molecule, the “PREEMERGENCE HERBICIDAL ACTIVITY (% CONTROL) IPOSS” value in test [5] worked out at 100%. Besides, the “PREEMERGENCE HERBICIDAL ACTIVITY (% CONTROL) STEME” value in test [6] is 100%. The “PREEMERGENCE HERBICIDAL ACTIVITY (% CONTROL) XANPE” value in [7] was determined as 100%. The “PREEMERGENCE HERBICIDAL ACTIVITY (% CONTROL) ALOMY” value in test [20] is 80%. Also, the “PREEMERGENCE HERBICIDAL ACTIVITY (% CONTROL) SETVI” value in test [8] turned out to be 100%. For the same molecule, the “PREEMERGENCE HERBICIDAL ACTIVITY (% CONTROL) SORHA” value in test [9] is 95%. Also, the “Postemergence herbicidal activity (% control) SOY” value in test [10] came out at 90%. For the same molecule, the “Postemergence herbicidal activity (% control) WHT” value in [11] is listed as 40%. For the same molecule, the “Postemergence herbicidal activity (% control) CRN” value in test [12] was found to be 90%. Also, the “Postemergence herbicidal activity (% control) ABUTH” value in [13] came to 100%. Further, in [14], the “Postemergence herbicidal activity (% control) IPOSS” value is on record as 90%. The “Postemergence herbicidal activity (% control) XANPE” value in test [16] is 100%. For the same molecule, the “Postemergence herbicidal activity (% control) ALOMY” value in [17] came to 80%. In [18], the “Postemergence herbicidal activity (% control) SETVI” value stood at 100%. Also, the “Postemergence herbicidal activity (% control) SORHA” value in [19] came out at 100%.

Take `CCOC(=O)c1cc2c(N3C(=O)C4=C(CCCC4)C3=O)ccc(Cl)c2[nH]1` [Compound 595, 3-(7-CHLORO-2-ETHOXYCARBONYLINDOL4-YL)-4,5,6,7-TETRAHYDRO-1H-ISOINDOLE-1,3(2H)-DIONE]: the “PREEMERGENCE HERBICIDAL ACTIVITY (% CONTROL) SOY” value in test [1] is given as 10%. For the same molecule, the “PREEMERGENCE HERBICIDAL ACTIVITY (% CONTROL) WHT” value in test [2] was found to be 0%. For the same molecule, the “PREEMERGENCE HERBICIDAL ACTIVITY (% CONTROL) CRN” value in [3] came out at 0%. Besides, the “PREEMERGENCE HERBICIDAL ACTIVITY (% CONTROL) ABUTH” value in [4] turned out to be 60%. Besides, the “PREEMERGENCE HERBICIDAL ACTIVITY (% CONTROL) IPOSS” value in test [5] worked out at 50%. Moreover, the “PREEMERGENCE HERBICIDAL ACTIVITY (% CONTROL) STEME” value in [6] is reported as 10%. Further, the “PREEMERGENCE HERBICIDAL ACTIVITY (% CONTROL) XANPE” value in test [7] came out at 20%. Further, the “PREEMERGENCE HERBICIDAL ACTIVITY (% CONTROL) SETVI” value in [8] was 0%. The “PREEMERGENCE HERBICIDAL ACTIVITY (% CONTROL) SORHA” value in [9] came out at 40%. In addition, the “Postemergence herbicidal activity (% control) SOY” value in [10] was found to be 50%. In [11], the “Postemergence herbicidal activity (% control) WHT” value was determined as 10%. Besides, in test [12], the “Postemergence herbicidal activity (% control) CRN” value is reported as 60%. Moreover, the “Postemergence herbicidal activity (% control) ABUTH” value in [13] stood at 30%. Besides, the “Postemergence herbicidal activity (% control) IPOSS” value in test [14] came out at 40%. Further, the “Postemergence herbicidal activity (% control) STEME” value in test [15] turned out to be 0%. In addition, in test [16], the “Postemergence herbicidal activity (% control) XANPE” value came to 20%. In addition, the “Postemergence herbicidal activity (% control) ALOMY” value in [17] came to 10%. Moreover, the “Postemergence herbicidal activity (% control) SETVI” value in test [18] is reported as 20%. For the same molecule, the “Postemergence herbicidal activity (% control) SORHA” value in test [19] turned out to be 20%.

The values above are taken from patent US6352958B1, “Cycloimido-substituted benzofused heterocyclic herbicides” (FMC Corporation, priority 1997, dated 2002).
